Measured values: patent US20130123358A1, “Metabolic Benefits to Butyrate as a Chronic Diet Supplement” (priority 2009, published 2013)

System: brown adipose tissue PGC-1α and UCP-1
Assay: Brown adipose tissue morphology, qRT-PCR and immunoblot
Format: in vivo, mouse
Description: Total RNA was extracted from frozen tissues (kept at −80° C.) using Tri-Reagent (T9424, Sigma) as described elsewhere (16). Taqman RT-PCR primer and probe were used to determine mRNA for PGC-1α (Mm00447183_m1), UCP-1 (Mm00494069_m1), PPARδ (Mm01305434_m1) and CPT1b (Mm00487200_m1). The reagents were purchased from Applied Biosystems (Foster City, Calif.). Mouse ribosome 18S rRNA_s1 (without intron-exon junction) was used as an internal control. Reaction was conducted with 7900 HT Fast real time PCR System (Applied Biosystems, Foster City, Calif.).
Fresh fat and muscles were collected and frozen in liquid nitrogen. The whole cell lysate protein was extract in lysis buffer with sonication and analyzed in western blot as described elsewhere (16). Antibodies were used in study of myoglobin (sc-25607, Santa Cruz), PGC-1 (sc-13068, Santa Cruz), Tubulin (ab7291, Abcam), myosin (M8421, Sigma), pAMPK (Thr 172, #2531, Cell signaling) and p-p38 (sc-7975, Santa Cruz). To detect multiple signals from one membrane, the membrane was stripped with a stripping buffer. Intensity of the immunoblot signal was quantified using a computer program, ImageJ 1.37v (NIH). The mean values of results from three experiments (6 mice each group) were presented. The antibodies to PGC-1α and UCP-1 were from Dr. Thomas Gettys at Pennington Biomedical Research Center, Baton Rouge, La.
Fresh tissues (muscle, fat and liver) were collected at 16 weeks of age after 12 weeks butyrate feeding and fixed in 10% neutral buffered formalin solution (HT50-1-2, Sigma). The tissue slides were obtained through serial cross-section cutting at 8 um thickness and processed with a standard procedure. Briefly, the slides were deparaffinated and stained in haematoxylin (#101542, Surgipath) for 15 min, and rinsed in water until sections are blue. Then, slides were stained in Eosin (E4009, Sigma), dehydrated quickly in 95% ethanol and treated with […]. The sections were mounted and photographed with Nikon microscope (Eclipse TS100, Japan).
In addition, the morphology and gene expression were examined in the brown fat of mice. Hematoxylin and eosin staining (H&E staining) was conducted on brown adipose tissues collected at 13 weeks on HFD. […] Compared to the control mice, the size of brown adipocytes was much smaller in the butyrate group (FIG. 4B), indicating a higher thermogenic activity that leads to the reduction in fat accumulation. Mitochondrial function is regulated by gene expression (24). To understand the molecular basis of the increased thermogenesis, the expression of two thermogenesis-related genes, such as PGC-1α and UCP-1, were examined in BAT. mRNA of both genes was increased in the butyrate-treated mice. Brown adipose tissues were collected at 13 weeks on HFD, and gene expression for PGC-1α and UCP-1 was examined by qRT-PCR. In addition, the corresponding proteins were assayed using a whole cell lysate (100 μg) resolved in SDS-PAGE and blotted with PGC-1α and UCP-1 antibodies. […] Data in FIGS. 4A-4D are presented as means±SE (n=9 mice). * P<0.05. This increase in gene expression provides a molecular basis for the enhanced thermogenesis by the butyrate treatment.

[1] = butyrate 5% w/w in HFD 13 weeks, immunoblot
[2] = butyrate 5% w/w in HFD 13 weeks, qRT-PCR

Q: What does the source list for `CCCC(=O)[O-].[Na+]` [sodium butyrate]?
A: size of brown adipocytes (butyrate 5% w/w in HFD 13 weeks vs control, H&E): much smaller; PGC-1α protein in brown fat [1]: also increased; UCP-1 protein in brown fat [1]: also increased; PGC-1α mRNA in BAT [2]: increased; UCP-1 mRNA in BAT [2]: increased
